The source of these data is patent US10226451B2, “Substituted bicyclic compounds as bromodomain inhibitors” (ZENITH EPIGENETICS LTD, priority 2013, dated 2019).

Assay [1] concerns the target T1, Brd4 bromodomain 1 (BRD4(1)) (Homo sapiens, UniProt O60885).
T1 construct: made in house; host or cells: E. coli BL21(DE3)
Kind of assay: Inhibition of tetra-acetylated histone H4 binding to Brd4 bromodomain 1 (HTRF/FRET). The note with it: tetra-acetylated histone H4 peptide, His-tagged bromodomain 200 nM, 2 h. Summed up:
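N-terminally His-tagged bromodomain (200 nM), expressed in E. coli and purified by Ni affinity and size exclusion, was incubated with biotinylated tetra-acetylated H4 peptide (25-50 nM), Eu-cryptate streptavidin and XL665 anti-His in HEPES pH 7.4 buffer with 0.2% DMSO. Reactions ran 2 h at room temperature. IC50 came from the 665/620 nm fluorescence decrease.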

For assay [2], the system named is c-myc in Human AML MV4-11 cells. Kind of assay: Inhibition of c-MYC expression (mRNA, real-time PCR) in MV4-11 cells. The format is cell-based. The following applies: 3 h, mRNA by real-time PCR. A digest of the protocol: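 Cells at 2.5×10^4 per well in IMDM/10% FBS were treated with rising compound concentrations or 0.1% DMSO for 3 h at 37° C., in triplicate. cMYC mRNA was measured by one-step TaqMan qRT-PCR, normalised to cyclophilin, and expressed as fold expression relative to control.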
In general terms: Real-time PCR tracks product formation cycle by cycle.

Assay [3] relates to hIL-6 mRNA in U937 cells. Kind of assay: Inhibition of hIL-6 mRNA transcription in LPS-stimulated U937 cells. The following applies: Homo sapiens, U-937, PMA-differentiated U937 cells, LPS 1 ug/mL, 3 h, read-out: IL-6 activity. The assay is classed as cell-based. A digest of the protocol:
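U937 cells were differentiated to macrophages with 60 ng/mL PMA for 3 days, pretreated 1 h with compound in 0.1% DMSO, then stimulated with 1 ug/mL E. coli LPS for 3 h at 37° C. hIL-6 mRNA was quantified by one-step TaqMan RT-qPCR, normalized to cyclophilin, as fold expression versus control.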

Assay [4] has as its system OCI-3 AML cells xenograft. Kind of assay: In vivo efficacy, acute myeloid leukemia xenograft model using OCI-3 AML cells. The arrangement: species or system mouse. The note with it: OCI-3 AML xenograft, nu/nu mice, oral dosing, tumor growth inhibition. The protocol: OCI-3 AML cells (DMSZ) were grown under standard cell culture conditions and (NCr) nu/nu fisol strain of female mice age 6-7 weeks were injected with 10×10^6 cells/animal in 100 μL PBS+100 μL Matrigel in the lower left abdominal flank. By approximately day 18-21 after OCI-3 AML cells injection, mice were randomized based on tumor volume (L×W×H)/2) of average ˜100-300 mm^3. Mice were dosed orally with compound at 30 mg/kg b.i.d on a continuous dosing schedule and at 2.5 to 45 mg/kg q.d. on a 5 day on and 2 day off dosing schedule in EA006 formulation at 10 mL/kg body weight dose volume. Tumor measurements were taken with electronic micro calipers and body weights measured on alternate days beginning from dosing period. The average tumor volumes, percent Tumor Growth Inhibition (TGI) and % change in body weights were compared relative to Vehicle control animals. The means, statistical analysis and the comparison between groups were calculated using Student's t-test in Excel.

Assay [5] relates to MM1.s cells xenograft. Briefly: In vivo efficacy, multiple myeloma xenograft model using MM1.s cells. More on the design: species or system mouse. The following applies: SCID-Beige mice, oral dosing, tumor growth inhibition. The procedure: MM1.s cells (ATCC) were grown under standard cell culture conditions and SCID-Beige strain of female mice age 6-7 weeks were injected with 10×10^6 cells/animal in 100 μL PBS+100 μL Matrigel in the lower left abdominal flank. By approximately day 21 after MM1.s cells injection, mice were randomized based on tumor volume (L×W×H)/2) of average ˜120 mm^3. Mice were dosed orally with compound at 25 to 90 mg/kg b.i.d and or q.d in EA006 formulation at 10 mL/kg body weight dose volume. Tumor measurements were taken with electronic micro calipers and body weights measured on alternate days beginning from dosing period. The average tumor volumes, percent Tumor Growth Inhibition (TGI) and % change in body weights were compared relative to Vehicle control animals. The means, statistical analysis and the comparison between groups were calculated using Student's t-test in Excel.

The structures appear in SMILES notation.

In the case of `Cc1noc(C)c1-c1cc(-c2c(C)nn(C)c2C)c2c(c1)[nH]c(=O)n2C` [Example Compound 9, 5-(3,5-dimethylisoxazol-4-yl)-1-methyl-7-(1,3,5-trimethyl-1H-pyrazol-4-yl)-1H-benzo[d]imidazol-2(3H)-one], the IC50 in assay [1], in assay [2] and in assay [3] was no more than 0.3 µM each time. For the same compound, the In vivo activity entry in assay [4] and in assay [5] was “Active” each time.
